Source: the NIST ThermoML archive (doi:10.1016/j.jct.2009.11.004)
Numbers after ± are expanded uncertainties.

conditions: 293.15 K; 101.33 kPa; Liquid; Concentric cylinders viscometry

Row | Compound | viscosity [mPa·s]
1 | CCCCCCCCCCCC[n+]1ccccc1.O=S(=O)([N-]S(=O)(=O)C(F)(F)F)C(F)(F)F [1-dodecylpyridinium bis(trifluoromethylsulfonyl)imide] | 269.72 ± 8.3
2 | CCCCCCCC[n+]1ccccc1.O=S(=O)([N-]S(=O)(=O)C(F)(F)F)C(F)(F)F [1-octylpyridinium bis((trifluoromethyl)sulfonyl)amide] | 149.53 ± 3.9
3 | CCCCCCCCCC[n+]1ccccc1.O=S(=O)([N-]S(=O)(=O)C(F)(F)F)C(F)(F)F [1-decylpyridinium bis(trifluoromethylsulfonyl)imide] | 201.44 ± 5.7
4 | CCCC[n+]1ccccc1.O=S(=O)([N-]S(=O)(=O)C(F)(F)F)C(F)(F)F [1-butylpyridinium bis[(trifluoromethyl)sulfonyl]imide] | 76.16 ± 1.8

same assay, conditions: 293.15 K; 101.33 kPa; Liquid; Vibrating tube method

Row | Compound | mass density [kg/m3]
5 | CCCCCCCCCCCC[n+]1ccccc1.O=S(=O)([N-]S(=O)(=O)C(F)(F)F)C(F)(F)F [1-dodecylpyridinium bis(trifluoromethylsulfonyl)imide] | 1253.1 ± 1.6
6 | CCCCCCCC[n+]1ccccc1.O=S(=O)([N-]S(=O)(=O)C(F)(F)F)C(F)(F)F [1-octylpyridinium bis((trifluoromethyl)sulfonyl)amide] | 1331.3 ± 1.8
7 | CCCCCCCCCC[n+]1ccccc1.O=S(=O)([N-]S(=O)(=O)C(F)(F)F)C(F)(F)F [1-decylpyridinium bis(trifluoromethylsulfonyl)imide] | 1287.8 ± 1.7
8 | CCCC[n+]1ccccc1.O=S(=O)([N-]S(=O)(=O)C(F)(F)F)C(F)(F)F [1-butylpyridinium bis[(trifluoromethyl)sulfonyl]imide] | 1452.5 ± 2

same assay, conditions: 298.15 K; 101.33 kPa; Liquid; Concentric cylinders viscometry

Row | Compound | viscosity [mPa·s]
9 | CCCCCCCCCCCC[n+]1ccccc1.O=S(=O)([N-]S(=O)(=O)C(F)(F)F)C(F)(F)F [1-dodecylpyridinium bis(trifluoromethylsulfonyl)imide] | 200.45 ± 5.7
10 | CCCCCC[n+]1ccn(C)c1.O=S(=O)([N-]S(=O)(=O)C(F)(F)F)C(F)(F)F | 68.54 ± 1.6
11 | CCCCCCCC[n+]1ccccc1.O=S(=O)([N-]S(=O)(=O)C(F)(F)F)C(F)(F)F [1-octylpyridinium bis((trifluoromethyl)sulfonyl)amide] | 114.34 ± 2.8
12 | CCCCCCCCCC[n+]1ccccc1.O=S(=O)([N-]S(=O)(=O)C(F)(F)F)C(F)(F)F [1-decylpyridinium bis(trifluoromethylsulfonyl)imide] | 151.93 ± 4
13 | CCCC[n+]1ccccc1.O=S(=O)([N-]S(=O)(=O)C(F)(F)F)C(F)(F)F [1-butylpyridinium bis[(trifluoromethyl)sulfonyl]imide] | 60.41 ± 1.4

same assay, conditions: 298.15 K; 101.33 kPa; Liquid; Vibrating tube method

Row | Compound | mass density [kg/m3]
14 | CCCCCCCCCCCC[n+]1ccccc1.O=S(=O)([N-]S(=O)(=O)C(F)(F)F)C(F)(F)F [1-dodecylpyridinium bis(trifluoromethylsulfonyl)imide] | 1248.8 ± 1.6
15 | CCCCCC[n+]1ccn(C)c1.O=S(=O)([N-]S(=O)(=O)C(F)(F)F)C(F)(F)F | 1370.8 ± 1.8
16 | CCCCCCCC[n+]1ccccc1.O=S(=O)([N-]S(=O)(=O)C(F)(F)F)C(F)(F)F [1-octylpyridinium bis((trifluoromethyl)sulfonyl)amide] | 1326.8 ± 1.8
17 | CCCCCCCCCC[n+]1ccccc1.O=S(=O)([N-]S(=O)(=O)C(F)(F)F)C(F)(F)F [1-decylpyridinium bis(trifluoromethylsulfonyl)imide] | 1283.5 ± 1.7
18 | CCCC[n+]1ccccc1.O=S(=O)([N-]S(=O)(=O)C(F)(F)F)C(F)(F)F [1-butylpyridinium bis[(trifluoromethyl)sulfonyl]imide] | 1447.6 ± 2

same assay, conditions: 303.15 K; 101.33 kPa; Liquid; Concentric cylinders viscometry

Row | Compound | viscosity [mPa·s]
19 | CCCCCCCCCCCC[n+]1ccccc1.O=S(=O)([N-]S(=O)(=O)C(F)(F)F)C(F)(F)F [1-dodecylpyridinium bis(trifluoromethylsulfonyl)imide] | 151.42 ± 4
20 | CCCCCCCC[n+]1ccccc1.O=S(=O)([N-]S(=O)(=O)C(F)(F)F)C(F)(F)F [1-octylpyridinium bis((trifluoromethyl)sulfonyl)amide] | 88.74 ± 2.1
21 | CCCCCCCCCC[n+]1ccccc1.O=S(=O)([N-]S(=O)(=O)C(F)(F)F)C(F)(F)F [1-decylpyridinium bis(trifluoromethylsulfonyl)imide] | 116.39 ± 2.9
22 | CCCC[n+]1ccccc1.O=S(=O)([N-]S(=O)(=O)C(F)(F)F)C(F)(F)F [1-butylpyridinium bis[(trifluoromethyl)sulfonyl]imide] | 48.55 ± 1.1

same assay, conditions: 303.15 K; 101.33 kPa; Liquid; Vibrating tube method

Row | Compound | mass density [kg/m3]
23 | CCCCCCCCCCCC[n+]1ccccc1.O=S(=O)([N-]S(=O)(=O)C(F)(F)F)C(F)(F)F [1-dodecylpyridinium bis(trifluoromethylsulfonyl)imide] | 1244.6 ± 1.6
24 | CCCCCCCC[n+]1ccccc1.O=S(=O)([N-]S(=O)(=O)C(F)(F)F)C(F)(F)F [1-octylpyridinium bis((trifluoromethyl)sulfonyl)amide] | 1322.5 ± 1.7
25 | CCCCCCCCCC[n+]1ccccc1.O=S(=O)([N-]S(=O)(=O)C(F)(F)F)C(F)(F)F [1-decylpyridinium bis(trifluoromethylsulfonyl)imide] | 1279.2 ± 1.7
26 | CCCC[n+]1ccccc1.O=S(=O)([N-]S(=O)(=O)C(F)(F)F)C(F)(F)F [1-butylpyridinium bis[(trifluoromethyl)sulfonyl]imide] | 1442.9 ± 2

same assay, conditions: 308.15 K; 101.33 kPa; Liquid; Concentric cylinders viscometry

Row | Compound | viscosity [mPa·s]
27 | CCCCCCCCCCCC[n+]1ccccc1.O=S(=O)([N-]S(=O)(=O)C(F)(F)F)C(F)(F)F [1-dodecylpyridinium bis(trifluoromethylsulfonyl)imide] | 116.63 ± 2.9
28 | CCCCCCCC[n+]1ccccc1.O=S(=O)([N-]S(=O)(=O)C(F)(F)F)C(F)(F)F [1-octylpyridinium bis((trifluoromethyl)sulfonyl)amide] | 70.13 ± 1.6
29 | CCCCCCCCCC[n+]1ccccc1.O=S(=O)([N-]S(=O)(=O)C(F)(F)F)C(F)(F)F [1-decylpyridinium bis(trifluoromethylsulfonyl)imide] | 90.82 ± 2.1
30 | CCCC[n+]1ccccc1.O=S(=O)([N-]S(=O)(=O)C(F)(F)F)C(F)(F)F [1-butylpyridinium bis[(trifluoromethyl)sulfonyl]imide] | 39.65 ± 0.9

same assay, conditions: 308.15 K; 101.33 kPa; Liquid; Vibrating tube method

Row | Compound | mass density [kg/m3]
31 | CCCCCCCCCCCC[n+]1ccccc1.O=S(=O)([N-]S(=O)(=O)C(F)(F)F)C(F)(F)F [1-dodecylpyridinium bis(trifluoromethylsulfonyl)imide] | 1240.5 ± 1.6
32 | CCCCCCCC[n+]1ccccc1.O=S(=O)([N-]S(=O)(=O)C(F)(F)F)C(F)(F)F [1-octylpyridinium bis((trifluoromethyl)sulfonyl)amide] | 1318.2 ± 1.7
33 | CCCCCCCCCC[n+]1ccccc1.O=S(=O)([N-]S(=O)(=O)C(F)(F)F)C(F)(F)F [1-decylpyridinium bis(trifluoromethylsulfonyl)imide] | 1275.1 ± 1.7
34 | CCCC[n+]1ccccc1.O=S(=O)([N-]S(=O)(=O)C(F)(F)F)C(F)(F)F [1-butylpyridinium bis[(trifluoromethyl)sulfonyl]imide] | 1438.3 ± 2

same assay, conditions: 313.15 K; 101.33 kPa; Liquid; Concentric cylinders viscometry

Row | Compound | viscosity [mPa·s]
35 | CCCCCCCCCCCC[n+]1ccccc1.O=S(=O)([N-]S(=O)(=O)C(F)(F)F)C(F)(F)F [1-dodecylpyridinium bis(trifluoromethylsulfonyl)imide] | 91.45 ± 2.2
